Assay results: ChEMBL document CHEMBL3813632, “Thiazolo[3,2-a]benzimidazol-3(2H)-one derivatives: Structure-activity relationships of selective nucleotide pyrophosphatase/phosphodiesterase1 (NPP1) inhibitors” (Bioorg Med Chem, 2016)
The source made the active and inactive calls. The rule behind the calls is not given here.

Key:
[1] = target: T1, Ectonucleotide pyrophosphatase/phosphodiesterase family member 1 (Homo sapiens, UniProt P22413); assay: Inhibition of human recombinant NPP1 expressed in insect SF9 cells using ATP as substrate preincubated with substrate followed by protein addition and subsequent incubation for 30 mins by capillary electrophoresis
T1 sequence (P22413 whole entry): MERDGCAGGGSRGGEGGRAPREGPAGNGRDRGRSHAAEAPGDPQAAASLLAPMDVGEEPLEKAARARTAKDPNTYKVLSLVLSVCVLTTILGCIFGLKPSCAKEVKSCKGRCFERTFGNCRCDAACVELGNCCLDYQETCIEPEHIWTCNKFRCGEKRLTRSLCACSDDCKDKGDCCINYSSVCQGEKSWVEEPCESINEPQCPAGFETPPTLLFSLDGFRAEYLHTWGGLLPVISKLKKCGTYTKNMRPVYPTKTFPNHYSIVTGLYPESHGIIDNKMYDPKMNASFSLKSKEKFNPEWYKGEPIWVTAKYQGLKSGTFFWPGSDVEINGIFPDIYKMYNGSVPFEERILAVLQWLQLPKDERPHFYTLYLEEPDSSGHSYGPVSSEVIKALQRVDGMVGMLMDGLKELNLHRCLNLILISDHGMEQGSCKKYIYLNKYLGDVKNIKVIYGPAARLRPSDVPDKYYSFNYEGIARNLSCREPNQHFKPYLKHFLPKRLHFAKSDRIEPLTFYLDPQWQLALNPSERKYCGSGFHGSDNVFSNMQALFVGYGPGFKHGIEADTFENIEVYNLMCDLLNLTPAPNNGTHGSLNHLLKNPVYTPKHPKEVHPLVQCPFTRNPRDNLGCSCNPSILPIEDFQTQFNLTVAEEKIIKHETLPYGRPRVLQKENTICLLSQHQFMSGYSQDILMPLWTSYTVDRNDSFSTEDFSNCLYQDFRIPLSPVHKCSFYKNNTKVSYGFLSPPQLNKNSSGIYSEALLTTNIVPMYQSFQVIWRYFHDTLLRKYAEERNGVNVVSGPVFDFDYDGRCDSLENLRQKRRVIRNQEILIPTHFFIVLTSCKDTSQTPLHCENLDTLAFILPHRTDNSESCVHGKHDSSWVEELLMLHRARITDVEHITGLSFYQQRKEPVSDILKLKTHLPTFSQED

[2] = target: T2, Ectonucleoside triphosphate diphosphohydrolase 2 (Homo sapiens) (UniProt Q9Y5L3); assay: Inhibition of human recombinant NTPDase2 expressed in CHO cells using ATP as substrate at 10 to 1000 uM preincubated with substrate followed by protein addition and subsequent incubation for 30 mins by capillary electrophoresis
T2 sequence (whole entry): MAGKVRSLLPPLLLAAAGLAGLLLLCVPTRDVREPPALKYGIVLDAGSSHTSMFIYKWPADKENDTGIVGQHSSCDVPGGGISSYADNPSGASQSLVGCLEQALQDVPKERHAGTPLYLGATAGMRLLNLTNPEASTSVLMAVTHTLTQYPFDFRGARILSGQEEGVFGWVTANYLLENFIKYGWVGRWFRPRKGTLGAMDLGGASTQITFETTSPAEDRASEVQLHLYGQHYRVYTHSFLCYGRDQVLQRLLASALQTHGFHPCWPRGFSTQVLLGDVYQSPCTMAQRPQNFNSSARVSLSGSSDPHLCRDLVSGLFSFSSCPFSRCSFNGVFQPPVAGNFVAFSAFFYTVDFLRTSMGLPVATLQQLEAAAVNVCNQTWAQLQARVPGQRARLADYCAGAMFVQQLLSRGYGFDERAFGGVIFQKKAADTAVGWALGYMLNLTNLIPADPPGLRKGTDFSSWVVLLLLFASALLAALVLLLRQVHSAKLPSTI

[3] = target: Autotaxin (Homo sapiens) (UniProt Q13822); assay: Inhibition of human recombinant NPP2 expressed in insect SF9 cells using 1-oleoylsn-glycero-3-phosphocholine as substrate at >100 uM preincubated with substrate followed by protein addition and subsequent incubation for 60 mins by colorimetric analysis
[4] = target: T3, Ectonucleotide pyrophosphatase/phosphodiesterase family member 3 (Homo sapiens) (UniProt O14638); assay: Inhibition of human recombinant NPP3 expressed in insect SF9 cells using ATP as substrate at >100 uM preincubated with substrate followed by protein addition and subsequent incubation for 60 mins by capillary electrophoresis
T3 sequence (whole entry): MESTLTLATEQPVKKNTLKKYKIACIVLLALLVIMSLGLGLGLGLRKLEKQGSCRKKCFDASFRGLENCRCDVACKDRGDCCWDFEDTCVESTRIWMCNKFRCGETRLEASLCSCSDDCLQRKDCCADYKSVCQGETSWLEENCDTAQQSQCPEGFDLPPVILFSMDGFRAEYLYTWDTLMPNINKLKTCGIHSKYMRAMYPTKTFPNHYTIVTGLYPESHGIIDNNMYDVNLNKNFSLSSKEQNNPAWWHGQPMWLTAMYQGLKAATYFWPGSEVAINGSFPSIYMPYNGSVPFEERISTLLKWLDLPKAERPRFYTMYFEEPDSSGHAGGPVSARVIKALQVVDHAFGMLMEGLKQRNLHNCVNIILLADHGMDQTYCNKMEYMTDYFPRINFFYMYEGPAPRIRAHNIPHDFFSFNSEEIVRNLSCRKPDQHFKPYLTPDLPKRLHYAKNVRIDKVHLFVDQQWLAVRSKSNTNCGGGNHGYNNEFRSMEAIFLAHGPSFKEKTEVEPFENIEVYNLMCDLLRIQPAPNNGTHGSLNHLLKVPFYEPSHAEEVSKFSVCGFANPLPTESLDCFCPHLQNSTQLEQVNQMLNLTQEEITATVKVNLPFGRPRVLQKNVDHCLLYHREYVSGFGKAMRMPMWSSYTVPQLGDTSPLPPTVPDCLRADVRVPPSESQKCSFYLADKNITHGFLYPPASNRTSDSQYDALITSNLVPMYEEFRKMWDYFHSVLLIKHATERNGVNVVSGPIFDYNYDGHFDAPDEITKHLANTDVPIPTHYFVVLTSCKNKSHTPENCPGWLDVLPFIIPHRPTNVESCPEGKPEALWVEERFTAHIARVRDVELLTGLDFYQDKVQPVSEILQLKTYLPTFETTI

[5] = target: 5'-nucleotidase (Homo sapiens) (UniProt P21589); assay: Inhibition of human recombinant Ecto-5'-nucleotidase expressed in CHO cells using AMP as substrate at >100 uM preincubated with substrate followed by protein addition and subsequent incubation for 30 mins by capillary electrophoresis
Chain of 5'-nucleotidase (Homo sapiens) (P21589 whole entry): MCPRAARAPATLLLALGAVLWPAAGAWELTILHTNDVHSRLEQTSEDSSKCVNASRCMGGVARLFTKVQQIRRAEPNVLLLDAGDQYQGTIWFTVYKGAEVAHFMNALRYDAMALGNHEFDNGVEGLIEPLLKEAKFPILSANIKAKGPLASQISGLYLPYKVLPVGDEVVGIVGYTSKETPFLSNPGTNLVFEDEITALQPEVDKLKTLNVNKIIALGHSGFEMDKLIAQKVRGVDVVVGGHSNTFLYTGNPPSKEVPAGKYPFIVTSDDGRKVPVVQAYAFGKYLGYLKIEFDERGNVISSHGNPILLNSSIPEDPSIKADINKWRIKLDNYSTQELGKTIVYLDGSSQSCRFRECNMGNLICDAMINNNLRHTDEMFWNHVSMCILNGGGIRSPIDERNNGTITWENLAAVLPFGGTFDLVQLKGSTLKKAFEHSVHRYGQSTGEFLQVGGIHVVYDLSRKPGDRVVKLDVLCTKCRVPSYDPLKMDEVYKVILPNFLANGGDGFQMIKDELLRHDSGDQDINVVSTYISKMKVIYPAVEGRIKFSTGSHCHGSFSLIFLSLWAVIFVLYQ

[6] = target: T4, Ectonucleotide pyrophosphatase/phosphodiesterase family member 1 (Homo sapiens) (UniProt P22413); assay: Uncompetitive inhibition of human recombinant NPP1 expressed in insect SF9 cells using ATP as substrate up to 2.8 uM preincubated with substrate followed by protein addition and subsequent incubation for 30 mins by Hanes-Woolf plot analysis
T4 sequence (whole entry): T1 sequence (P22413 whole entry)

[7] = Chemical stability of the compound assessed as compound remaining at pH 9 at 25 degC after 24 hrs by HPLC-MS analysis; format: physicochemical; settings: buffer, read-out: Stability
[8] = species on record: Homo sapiens; assay: Selectivity ratio of Ki for human recombinant soluble NTPDase1 to Ki for human recombinant NPP1

O=c1/c(=C/c2ccc(I)o2)sc2nc3ccccc3n12
Ki [1]: 467 nM
inhibition [2]: inactive
inhibition [3]: Active
inhibition [4]: Active
inhibition [5]: Active
inhibition [6]: Active
remaining at 24 h [7]: 52.4%
Ratio Ki [8]: 1000
